Reference: patent US5670520A, “Method for inhibiting virus replication in mammalian cells using carbostyil derivatives” (Otsuka Pharmaceutical Co., Ltd., priority 1996, dated 1997)

Assays:
human T cells [1] = experiment: [3H]thymidine incorporation by PHA-stimulated human T cells; type: cell-based; conditions: 10 μg/ml PHA 48 hrs, 0-250 μM vesnarinone, 6 hrs pulse
Method: More specifically, human primary T cells were separated from peripheral blood obtained by leukopheresis of healthy donors. Mononuclear cell suspensions were prepared by Ficoll-Hypaque gradient centrifugation, and T cells were obtained by E-rosette enrichment as described by Kumagai et al, J. Cell. Physiol., 137:329 (1988).
Then, 1.0 μCi of [^3 H]thymidine (6.7 Ci/mmole, ICN), was added to 2.0×10^6 cells (100 μl), and the cells were pulse-labeled for 6 hrs.

human T cells [2] = experiment: 30 min [3H]thymidine, [3H]uridine and [3H]amino acid incorporation; type: cell-based; conditions: 30 min label, 250 μM vesnarinone
Method: Next, the PHA-stimulated T cells were labelled for 30 min with 5.0 μCi/ml of an [^3 H]amino acid mixture (1.0 mCi/ml, Amersham, Arlington Heights, Ill.), washed twice with ice-cold PBS, and then lysed in PBS containing 1.0% (w/v) SDS, followed by addition of a mixture of 7.0% (w/v) trichloroacetic acid and 1.0% (w/v) pyrophosphate. The precipitates were loaded on GF/A filters, and washed extensively with a mixture of 7.0% (w/v) trichloroacetic acid and 1.0% (w/v) pyrophosphate. Radioactivity was measured by scintillation counting.

ZEBRA = experiment: Flow cytometric detection of ZEBRA in Akata cells; type: cell-based, Epstein-Barr virus; conditions: 3 hrs after anti-IgG; vesnarinone 0-100 μg/ml
Method: The human Burkitt's lymphoma cell line, Akata, provided by Dr. Kenzo Takada (Takada, Int. J. Cancer, 33:27-32 (1984); and Takada et al, Virus Genes, 5:147-156 (1991)), was cultured at 37° C. in RPMI 1640 medium supplemented with 15% (v/v) heat-inactivated FCS, and 20 μg/ml gentamicin.
The cell progression of Akata cells was arrested by culturing of the cells for 96 hrs in the presence of 1.5% (y/v) DMSO (Sigma, St. Louis, Mo.) (Sawai et al, Exp. Cell Res., 187:4-10 (1990); and Takase et al, Cell Growth Differ., 3:515-521 (1992)).
1 hr after transfer (release from DMSO), a goat F(ab')2 fragment of anti-human IgG antibody (Organon Teknika, Durham, N.C.) was added at a concentration of 50 μg/ml to induce productive EBV replication (Takagi et al, Virology, 185:309-315 (1991)). […]
For flow cytometric detection of ZEBRA, after a 60 min fixation with 70% (v/v) ethanol at 4° C., 10^6 cells were centrifuged, and washed with PBS. […] The cells were washed with PBS again, and analyzed by flow cytometry (Epics Profile, Coulter), monitoring fluorescence (520-540 nm) in a logarithmic scale with 488 nm excitation. The positivity for ZEBRA was calculated by a non-linear least squares method (Takase et al, J. Immunol. Methods, 118:129-138 (1989)).

EBV = experiment: Productive replication of EBV in growing Akata cells (in situ hybridization); type: cell-based, Epstein-Barr virus; conditions: for positivity for EBV DNA: 20 μg/ml vesnarinone
Method: 1 hr later, anti-IgG was added to the cultures at a final concentration of 50 μg/ml, and the cells were harvested for in situ hybridization of EBV DNA 24 hrs later as described above.

U937 cells [3] = experiment: [3H]thymidine uptake in U937 cells within 1 min; type: cell-based, human; conditions: 0-250 μM vesnarinone or 0-1000 nM dipyridamole
Method: Dipyridamole was prepared as a 50 mM stock solution dissolved in ethanol.

U937 cells [4] = experiment: Intracellular phosphorylated AZT in U937 cells (DEAE filter); conditions: 0-250 μM vesnarinone or 0-100 nM dipyridamole; 2 hr
[5] = test system: primary human T lymphocytes; experiment: Rapid uptake of [3H]thymidine / [3H]AZT in PHA-activated human T cells; conditions: 0-250 μM vesnarinone, 1 min
Method: Human PBMC were obtained by leukopheresis of HIV-1 and HBV Zeronegative healthy donors. Mononuclear cell suspensions were prepared therefrom by Ficoll-Hypaque gradient centrifugation, and the T cells were obtained therefrom by E-rosette enrichment as described by Terada et al, J. Immunol., 147:698-704 (1991).
Then, 1.0 μCi/ml of [^3 H]thymidine (6.7 Ci/mmol) or 1.0 μCi/ml of [^3 H]AZT (14 Ci/mmol) was added, and the mixture was immediately layered on silicone oil/paraffin oil (96:6) in microfuge tubes. […] The water and oil phases were discarded, and radioactivity of the cell pellets was measured using liquid scintillation counting.

SMILES: COc1ccc(C(=O)N2CCN(c3ccc4c(c3)CCC(=O)N4)CC2)cc1OC [vesnarinone, 3,4-dihydro-6-[4-(3,4-dimethoxybenzoyl)-1-piperazinyl]-2(1H)-quinoline]
- [3H]thymidine incorporation into DNA (human T cells [1]): inhibits [^3 H]thymidine incorporation into DNA in a dose-dependent manner
- [3H]amino acid incorporation (human T cells [2]): did not inhibit [^3 H]amino acid incorporation
- [3H]uridine incorporation, brief exposure (human T cells [2]; 15 nM aphidicolin or 100 μM deferoxamine): rapidly inhibited [^3 H]uridine incorporation
- degree of positivity for ZEBRA (ZEBRA): not decreased by vesnarinone at concentrations less than or equal to 10 μg/ml
- EBV production (EBV; 20 μg/ml vesnarinone only concurrently with anti-IgG treatment): displayed a more profound reduction of EBV production
- positivity for EBV DNA (EBV; pre-treatment alone (7 days)): the degree of positivity for EBV DNA was higher
- positivity for EBV DNA (EBV; pre-treatment+post-treatment or solely post-treatment): reduced the level of positivity for EBV DNA compared to untreated cells
- uptake of thymidine (U937 cells [3]): inhibited the uptake of thymidine in a dose-dependent manner
- intracellular concentration of phosphorylated AZT (U937 cells [4]): increased the concentration of phosphorylated AZT in U937 cells in a dose-dependent manner
- uptake of [3H]AZT [5]: the uptake of [^3 H]AZT was not affected by vesnarinone
- uptake of [3H]thymidine [5]: inhibits the uptake of [^3 H]thymidine in a dose-dependent manner
